Key:
Experiment in all cases: kinobeads assay with mass spectrometry detection of kinases (kinase selectivity profile)
Type in all cases: binding
kinases (kinome) [1] = target: T1, kinases (kinome) (Homo sapiens, UniProt O94768); settings: DRAK2 (CAMK), IPI00916930
T1 construct: determined in kinobeads assays with mass spectrometry detection of kinases as described previously; endogenous in cells; host or cells: cell lysate
T1 sequence (O94768 1-372): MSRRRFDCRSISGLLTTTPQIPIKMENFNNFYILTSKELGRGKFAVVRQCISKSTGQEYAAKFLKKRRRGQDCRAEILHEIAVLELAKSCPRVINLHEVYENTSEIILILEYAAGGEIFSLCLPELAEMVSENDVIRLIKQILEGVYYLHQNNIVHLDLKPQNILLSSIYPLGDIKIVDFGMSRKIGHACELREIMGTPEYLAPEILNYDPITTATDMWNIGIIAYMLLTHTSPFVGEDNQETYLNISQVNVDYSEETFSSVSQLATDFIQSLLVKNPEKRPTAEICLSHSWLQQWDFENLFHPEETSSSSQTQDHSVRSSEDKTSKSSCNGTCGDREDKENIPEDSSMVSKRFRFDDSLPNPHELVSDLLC
Excerpt: (§1) The protein kinase complement of the human genome (the kinome) was described previously (Manning et al., 2002. Science 298(5600):1912-1934). Sequence accession numbers are defined by the International Protein Index (IPI) (Kersey et al., 2004. Proteomics 4(7):1985-1988).

kinases (kinome) [2] = target: T2, kinases (kinome) (Homo sapiens, UniProt Q9H2G2); settings: SLK (STE), IPI00022827
T2 construct: determined in kinobeads assays with mass spectrometry detection of kinases as described previously; endogenous in cells; host or cells: cell lysate
Excerpt: as §1

kinases (kinome) [3] = target: T3, kinases (kinome) (Homo sapiens, UniProt Q9BZL6); settings: PKD2 (CAMK), IPI00009334
T3 construct: determined in kinobeads assays with mass spectrometry detection of kinases as described previously; endogenous in cells; host or cells: cell lysate
Excerpt: as §1

kinases (kinome) [4] = target: T4, kinases (kinome) (Homo sapiens, UniProt P00519); settings: ABL (TK), IPI00221171
T4 construct: determined in kinobeads assays with mass spectrometry detection of kinases as described previously; endogenous in cells; host or cells: cell lysate
Excerpt: as §1

kinases (kinome) [5] = target: T5, kinases (kinome) (Homo sapiens, UniProt Q13164); settings: Erk5 (CMGC), IPI00910923
T5 construct: determined in kinobeads assays with mass spectrometry detection of kinases as described previously; endogenous in cells; host or cells: cell lysate
Excerpt: as §1

kinases (kinome) [6] = target: T6, kinases (kinome) (Homo sapiens, UniProt P06213); settings: INSR (TK), IPI00025803
T6 construct: determined in kinobeads assays with mass spectrometry detection of kinases as described previously; endogenous in cells; host or cells: cell lysate
Excerpt: as §1

kinases (kinome) [7] = target: T7, kinases (kinome) (Homo sapiens, UniProt Q13627); settings: DYRK1A (CMGC), IPI00014344
T7 construct: determined in kinobeads assays with mass spectrometry detection of kinases as described previously; endogenous in cells; host or cells: cell lysate
Excerpt: as §1

kinases (kinome) [8] = target: T8, kinases (kinome) (Homo sapiens, UniProt P15735); settings: PHKg2 (CAMK), IPI00012891
T8 construct: determined in kinobeads assays with mass spectrometry detection of kinases as described previously; endogenous in cells; host or cells: cell lysate
Excerpt: as §1

kinases (kinome) [9] = target: T9, kinases (kinome) (Homo sapiens, UniProt Q9Y6M4); settings: CK1g3 (CK1), IPI00218437
T9 construct: determined in kinobeads assays with mass spectrometry detection of kinases as described previously; endogenous in cells; host or cells: cell lysate
Excerpt: as §1

kinases (kinome) [10] = target: T10, kinases (kinome) (Homo sapiens, UniProt P51812); settings: RSK2 (AGC), IPI00020898
T10 construct: determined in kinobeads assays with mass spectrometry detection of kinases as described previously; endogenous in cells; host or cells: cell lysate
Excerpt: as §1

kinases (kinome) [11] = target: T11, kinases (kinome) (Homo sapiens, UniProt Q9UQM7); settings: CaMK2a (CAMK), IPI00550056
T11 construct: determined in kinobeads assays with mass spectrometry detection of kinases as described previously; endogenous in cells; host or cells: cell lysate
Excerpt: as §1

kinases (kinome) [12] = target: T12, kinases (kinome) (Homo sapiens, UniProt P49759); settings: CLK1 (CMGC), IPI00915761
T12 construct: determined in kinobeads assays with mass spectrometry detection of kinases as described previously; endogenous in cells; host or cells: cell lysate
Excerpt: as §1

kinases (kinome) [13] = target: T13, kinases (kinome) (Homo sapiens, UniProt Q86TW2); settings: ADCK1 (Atypical), IPI00787836
T13 construct: determined in kinobeads assays with mass spectrometry detection of kinases as described previously; endogenous in cells; host or cells: cell lysate
Excerpt: as §1

kinases (kinome) [14] = target: T14, kinases (kinome) (Homo sapiens, UniProt O60674); settings: JAK2 (TK), IPI00031016
T14 construct: determined in kinobeads assays with mass spectrometry detection of kinases as described previously; endogenous in cells; host or cells: cell lysate
Excerpt: as §1

kinases (kinome) [15] = target: T15, kinases (kinome) (Homo sapiens, UniProt Q99759); settings: MAP3K3 (STE), IPI00181703
T15 construct: determined in kinobeads assays with mass spectrometry detection of kinases as described previously; endogenous in cells; host or cells: cell lysate
Excerpt: as §1

kinases (kinome) [16] = target: T16, kinases (kinome) (Homo sapiens, UniProt Q8N752); settings: CK1a2 (CK1), IPI00167096
T16 construct: determined in kinobeads assays with mass spectrometry detection of kinases as described previously; endogenous in cells; host or cells: cell lysate
Excerpt: as §1

kinases (kinome) [17] = target: T17, kinases (kinome) (Homo sapiens, UniProt P10721); settings: KIT (TK), IPI00022296
T17 construct: determined in kinobeads assays with mass spectrometry detection of kinases as described previously; endogenous in cells; host or cells: cell lysate
Excerpt: as §1

kinases (kinome) [18] = target: T18, kinases (kinome) (Homo sapiens, UniProt O75676); settings: MSK2 (AGC), IPI00022536
T18 construct: determined in kinobeads assays with mass spectrometry detection of kinases as described previously; endogenous in cells; host or cells: cell lysate
Excerpt: as §1

kinases (kinome) [19] = target: T19, kinases (kinome) (Homo sapiens, UniProt Q16513); settings: PKN2 (AGC), IPI00002804
T19 construct: determined in kinobeads assays with mass spectrometry detection of kinases as described previously; endogenous in cells; host or cells: cell lysate
Excerpt: as §1

kinases (kinome) [20] = target: T20, kinases (kinome) (Homo sapiens, UniProt P48426); settings: PIP5K2A (Lipid Kinase), IPI00009688
T20 construct: determined in kinobeads assays with mass spectrometry detection of kinases as described previously; endogenous in cells; host or cells: cell lysate
Excerpt: as §1

kinases (kinome) [21] = target: T21, kinases (kinome) (Homo sapiens, UniProt Q13873); settings: BMPR2 (TKL), IPI00783156
T21 construct: determined in kinobeads assays with mass spectrometry detection of kinases as described previously; endogenous in cells; host or cells: cell lysate
Excerpt: as §1

kinases (kinome) [22] = target: T22, kinases (kinome) (Homo sapiens, UniProt P78368); settings: CK1g2 (CK1), IPI00297767
T22 construct: determined in kinobeads assays with mass spectrometry detection of kinases as described previously; endogenous in cells; host or cells: cell lysate
Excerpt: as §1

Measured: IC50

T17 sequence (P10721 26-976): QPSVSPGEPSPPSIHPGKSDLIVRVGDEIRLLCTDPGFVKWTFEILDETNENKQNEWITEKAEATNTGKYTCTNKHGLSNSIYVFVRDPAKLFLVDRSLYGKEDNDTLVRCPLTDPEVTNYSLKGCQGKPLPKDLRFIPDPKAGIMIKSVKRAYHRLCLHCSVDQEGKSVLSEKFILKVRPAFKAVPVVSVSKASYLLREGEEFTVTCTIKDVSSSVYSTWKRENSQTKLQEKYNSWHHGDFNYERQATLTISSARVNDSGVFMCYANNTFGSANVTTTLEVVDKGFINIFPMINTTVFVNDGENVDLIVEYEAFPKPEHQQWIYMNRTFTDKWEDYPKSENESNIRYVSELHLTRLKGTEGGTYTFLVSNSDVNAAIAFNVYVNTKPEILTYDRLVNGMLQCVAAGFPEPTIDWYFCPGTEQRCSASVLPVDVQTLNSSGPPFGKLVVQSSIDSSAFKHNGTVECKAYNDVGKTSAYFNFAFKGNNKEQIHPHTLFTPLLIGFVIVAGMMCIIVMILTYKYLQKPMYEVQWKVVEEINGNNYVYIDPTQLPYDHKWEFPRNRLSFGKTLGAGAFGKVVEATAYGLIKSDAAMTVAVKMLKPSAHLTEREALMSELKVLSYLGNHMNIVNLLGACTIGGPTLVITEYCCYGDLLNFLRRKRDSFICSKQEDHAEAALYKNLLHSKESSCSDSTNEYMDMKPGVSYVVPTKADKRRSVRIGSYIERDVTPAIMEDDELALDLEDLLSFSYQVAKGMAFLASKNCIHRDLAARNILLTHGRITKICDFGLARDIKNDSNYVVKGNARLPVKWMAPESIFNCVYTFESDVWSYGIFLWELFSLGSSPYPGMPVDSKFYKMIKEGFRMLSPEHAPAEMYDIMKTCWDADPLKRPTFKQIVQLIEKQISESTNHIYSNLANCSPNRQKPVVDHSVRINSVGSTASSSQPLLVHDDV
T4 sequence (P00519 whole entry): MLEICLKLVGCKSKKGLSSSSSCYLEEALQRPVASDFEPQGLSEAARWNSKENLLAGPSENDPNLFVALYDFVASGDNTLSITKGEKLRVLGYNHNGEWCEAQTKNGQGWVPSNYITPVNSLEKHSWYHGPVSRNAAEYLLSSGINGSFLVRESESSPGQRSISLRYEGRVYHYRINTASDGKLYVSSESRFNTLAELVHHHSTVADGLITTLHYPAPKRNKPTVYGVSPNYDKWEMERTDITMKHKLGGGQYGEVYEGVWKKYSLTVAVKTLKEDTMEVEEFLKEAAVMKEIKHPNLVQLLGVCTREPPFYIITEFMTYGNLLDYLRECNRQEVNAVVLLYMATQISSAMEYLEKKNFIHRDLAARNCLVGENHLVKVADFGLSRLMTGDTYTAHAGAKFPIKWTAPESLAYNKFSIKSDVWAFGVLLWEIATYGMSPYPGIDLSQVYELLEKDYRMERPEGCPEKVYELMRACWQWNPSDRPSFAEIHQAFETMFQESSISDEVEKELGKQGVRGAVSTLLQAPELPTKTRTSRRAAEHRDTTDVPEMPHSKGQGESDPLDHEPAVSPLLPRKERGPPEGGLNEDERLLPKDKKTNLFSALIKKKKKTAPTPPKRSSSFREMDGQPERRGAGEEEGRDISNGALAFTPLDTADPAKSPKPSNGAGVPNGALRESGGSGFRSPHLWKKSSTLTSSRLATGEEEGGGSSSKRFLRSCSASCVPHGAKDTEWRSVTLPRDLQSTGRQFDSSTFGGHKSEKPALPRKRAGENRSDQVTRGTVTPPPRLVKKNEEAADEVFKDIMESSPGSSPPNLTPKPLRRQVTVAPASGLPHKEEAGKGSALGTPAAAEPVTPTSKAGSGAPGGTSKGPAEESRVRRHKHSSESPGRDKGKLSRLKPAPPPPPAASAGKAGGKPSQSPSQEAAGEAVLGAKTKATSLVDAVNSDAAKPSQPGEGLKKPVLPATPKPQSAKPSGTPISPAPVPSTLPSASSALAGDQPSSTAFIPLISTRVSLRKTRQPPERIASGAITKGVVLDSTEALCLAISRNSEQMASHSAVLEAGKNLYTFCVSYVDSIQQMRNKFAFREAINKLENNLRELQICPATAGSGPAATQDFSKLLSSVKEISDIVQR
T18 sequence (O75676 whole entry): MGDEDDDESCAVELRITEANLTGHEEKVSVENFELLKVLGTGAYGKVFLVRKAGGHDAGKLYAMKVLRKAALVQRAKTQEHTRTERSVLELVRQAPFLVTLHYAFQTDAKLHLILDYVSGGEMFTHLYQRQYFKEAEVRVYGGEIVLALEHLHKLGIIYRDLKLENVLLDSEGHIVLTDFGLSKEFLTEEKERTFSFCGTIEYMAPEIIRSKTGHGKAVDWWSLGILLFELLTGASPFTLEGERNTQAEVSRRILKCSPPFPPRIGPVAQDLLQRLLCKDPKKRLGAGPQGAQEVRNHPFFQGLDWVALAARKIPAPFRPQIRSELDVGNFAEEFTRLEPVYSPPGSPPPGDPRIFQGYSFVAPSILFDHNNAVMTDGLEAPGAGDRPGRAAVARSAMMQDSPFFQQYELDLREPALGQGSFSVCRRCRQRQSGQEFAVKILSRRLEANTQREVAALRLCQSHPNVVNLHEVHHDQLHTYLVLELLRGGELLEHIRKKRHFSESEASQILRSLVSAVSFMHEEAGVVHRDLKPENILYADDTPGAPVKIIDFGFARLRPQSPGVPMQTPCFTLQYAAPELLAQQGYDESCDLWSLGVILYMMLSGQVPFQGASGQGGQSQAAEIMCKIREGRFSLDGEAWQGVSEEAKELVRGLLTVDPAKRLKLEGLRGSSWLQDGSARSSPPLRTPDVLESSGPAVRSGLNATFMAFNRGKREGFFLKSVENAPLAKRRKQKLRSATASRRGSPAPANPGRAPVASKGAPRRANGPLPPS
T12 sequence (P49759 whole entry): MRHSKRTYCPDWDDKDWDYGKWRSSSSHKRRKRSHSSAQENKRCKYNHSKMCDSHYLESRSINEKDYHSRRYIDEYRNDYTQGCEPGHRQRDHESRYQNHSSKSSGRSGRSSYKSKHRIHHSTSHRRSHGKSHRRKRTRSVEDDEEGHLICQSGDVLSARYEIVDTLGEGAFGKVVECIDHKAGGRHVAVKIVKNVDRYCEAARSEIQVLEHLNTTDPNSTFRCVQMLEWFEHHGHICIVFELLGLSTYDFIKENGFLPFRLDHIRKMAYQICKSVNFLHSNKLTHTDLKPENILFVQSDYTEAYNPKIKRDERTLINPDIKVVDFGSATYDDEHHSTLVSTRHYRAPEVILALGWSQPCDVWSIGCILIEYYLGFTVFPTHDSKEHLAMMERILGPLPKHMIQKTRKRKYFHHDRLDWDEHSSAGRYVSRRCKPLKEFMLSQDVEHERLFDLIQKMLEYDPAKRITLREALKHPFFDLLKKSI
T15 sequence (Q99759 whole entry): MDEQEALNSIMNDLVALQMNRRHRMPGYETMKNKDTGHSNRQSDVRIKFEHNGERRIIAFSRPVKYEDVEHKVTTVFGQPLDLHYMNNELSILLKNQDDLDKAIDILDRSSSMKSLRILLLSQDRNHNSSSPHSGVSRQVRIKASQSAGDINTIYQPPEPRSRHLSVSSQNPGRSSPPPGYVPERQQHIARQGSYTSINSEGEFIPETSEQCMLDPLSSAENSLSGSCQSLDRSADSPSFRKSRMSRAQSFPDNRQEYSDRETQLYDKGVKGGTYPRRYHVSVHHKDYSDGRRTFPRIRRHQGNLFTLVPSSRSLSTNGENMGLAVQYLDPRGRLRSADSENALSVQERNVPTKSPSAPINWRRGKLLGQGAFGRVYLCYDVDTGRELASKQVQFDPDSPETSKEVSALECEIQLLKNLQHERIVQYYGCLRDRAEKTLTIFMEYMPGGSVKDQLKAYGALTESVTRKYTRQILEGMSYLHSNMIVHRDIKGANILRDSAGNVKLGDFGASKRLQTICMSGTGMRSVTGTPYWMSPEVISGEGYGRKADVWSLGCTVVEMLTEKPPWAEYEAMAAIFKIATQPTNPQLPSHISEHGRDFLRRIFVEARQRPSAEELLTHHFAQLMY
T9 sequence (Q9Y6M4 whole entry): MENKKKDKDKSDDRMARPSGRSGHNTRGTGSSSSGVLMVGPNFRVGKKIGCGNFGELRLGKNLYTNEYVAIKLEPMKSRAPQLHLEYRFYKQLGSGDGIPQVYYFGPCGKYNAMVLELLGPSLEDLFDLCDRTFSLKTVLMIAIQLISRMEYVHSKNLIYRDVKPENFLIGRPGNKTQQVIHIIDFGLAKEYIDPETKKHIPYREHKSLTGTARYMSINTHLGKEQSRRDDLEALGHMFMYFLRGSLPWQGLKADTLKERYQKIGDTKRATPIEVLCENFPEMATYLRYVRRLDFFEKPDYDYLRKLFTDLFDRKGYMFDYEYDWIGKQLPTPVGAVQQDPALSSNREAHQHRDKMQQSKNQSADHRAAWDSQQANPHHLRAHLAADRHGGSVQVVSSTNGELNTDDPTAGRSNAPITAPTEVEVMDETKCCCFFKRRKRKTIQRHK
T8 sequence (P15735 whole entry): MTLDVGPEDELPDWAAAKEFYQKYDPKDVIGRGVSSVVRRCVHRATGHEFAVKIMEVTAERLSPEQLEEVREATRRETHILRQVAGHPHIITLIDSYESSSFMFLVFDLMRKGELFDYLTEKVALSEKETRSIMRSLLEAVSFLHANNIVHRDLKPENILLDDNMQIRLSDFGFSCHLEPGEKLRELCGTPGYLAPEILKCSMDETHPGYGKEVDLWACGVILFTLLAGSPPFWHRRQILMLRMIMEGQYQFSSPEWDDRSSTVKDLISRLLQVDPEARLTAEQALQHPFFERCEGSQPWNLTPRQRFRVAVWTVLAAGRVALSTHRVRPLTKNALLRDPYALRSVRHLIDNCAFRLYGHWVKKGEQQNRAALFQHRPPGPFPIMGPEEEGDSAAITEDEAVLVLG

C[C@H]1COCCN1c1nc(-c2ccc(NC(=O)NC3CC3)cc2)cc(-c2ccccc2S(C)(=O)=O)n1 [Example 4, (S)-1-cyclopropyl-3-(4-(2-(3-methylmorpholino)-6-(2-(methylsulfonyl)phenyl)pyrimidin-4-yl)phenyl)urea]
> 10 µM: kinases (kinome) [1] | kinases (kinome) [2] | kinases (kinome) [3] | kinases (kinome) [4] | kinases (kinome) [5] | kinases (kinome) [6] | kinases (kinome) [7] | kinases (kinome) [8] | kinases (kinome) [9] | kinases (kinome) [10]

CCNC(=O)Nc1ccc(-c2cc(-c3ccccc3C#N)nc(N3CCOC[C@@H]3C)n2)cc1 [Example 8, (S)-1-(4-(6-(2-cyanophenyl)-2-(3-methylmorpholino)pyrimidin-4-yl)phenyl)-3-ethylurea]
> 10 µM: kinases (kinome) [9] | kinases (kinome) [11] | kinases (kinome) [12]

C[C@H]1COCCN1c1nc(-c2ccc(NC(=O)NC3CC3)cc2)cc(-c2cc(F)ccc2S(C)(=O)=O)n1 [Example 40, (S)-1-cyclopropyl-3-(4-(6-(5-fluoro-2-(methylsulfonyl)phenyl)-2-(3-methylmorpholino)pyrimidin-4-yl)phenyl)urea]
not listed: kinases (kinome) [2] | kinases (kinome) [5] | kinases (kinome) [7] | kinases (kinome) [9] | kinases (kinome) [11] | kinases (kinome) [22]
> 10 µM: all other assays above

C[C@H]1COCCN1c1cc(-c2ccccn2)nc(-c2ccc(NC(=O)NCCO)cc2)n1 [Example 43, (S)-1-(2-hydroxyethyl)-3-(4-(4-(3-methylmorpholino)-6-(pyridin-2-yl)pyrimidin-2-yl)phenyl)urea]
> 10 µM: kinases (kinome) [17] | kinases (kinome) [12] | kinases (kinome) [18] | kinases (kinome) [19]

C[C@H]1COCCN1c1nc(-c2ccc(NC(=O)NC3CC3)cc2)cc(-c2cccnc2S(C)(=O)=O)n1 [Example 46, (S)-1-cyclopropyl-3-(4-(2-(3-methylmorpholino)-6-(2-(methylsulfonyl)pyridin-3-yl)pyrimidin-4-yl)phenyl)urea]
> 10 µM: kinases (kinome) [14] | kinases (kinome) [1] | kinases (kinome) [17] | kinases (kinome) [22] | kinases (kinome) [12] | kinases (kinome) [18]

C[C@H]1COCCN1c1nc(-c2ccc(NC(=O)N[C@H]3CCC[C@@H]3O)cc2)cc(-c2cc(F)ccc2S(C)(=O)=O)n1 [Example 76, 1-(4-(6-(5-fluoro-2-(methylsulfonyl)phenyl)-2-((S)-3-methylmorpholino)pyrimidin-4-yl)phenyl)-3-((1S,2S)-2-hydroxycyclopentyl)urea]
> 10 µM: kinases (kinome) [15] | kinases (kinome) [4]
